In the assay the test system is NF-κ B. Briefly: Inhibitory activity of NF-κ B activation, luciferase reporter assay in HepG2 under TNF-α stimulation. It counts as cell-based, human. The conditions noted are these: HepG2, TNF-α (40 ng/ml), 4 hours. The protocol:
Using a transfection reagent(Effectene; QIAGEN), the human hepatoma cell strain HepG2 was transfected with a plasmid(pNF κ B-Luc Reporter Plasmid; […]) which is integrated with an oligonucleotide having five tandem copies of NF-κ B binding sequences([…]) on a upstream region of firefly luciferase gene(Luc) according to the QIAGEN's protocol, and the cells were incubated for 6 to 24 hours. After the addition of TNF-α (40 ng/ml) in the presence or absence of a test compound, the cells were incubated for 4 hours, and intracellular luciferase activity was measured by using PicaGene LT (TOYO INK MFG Co., Ltd.) and a chemical luminescence measurement apparatus ([…]luor Plus; TECAN). The inhibitory ratio was measured as a ratio relative to the value of a luciferase activity in the absence of the test compound.

As for `O=C(Nc1cc(C(F)(F)F)ccc1OCC(F)(F)F)c1cc(Cl)ccc1O` [Compound No. 113], the “Inhibitory Ratio of NF-κ B Activation(%) Drug Concentration 1 μg/mL” value is given as 90.5% and the “Inhibitory Ratio of NF-κ B Activation(%) Drug Concentration 10 μg/mL” value was 96.2%.
Take `COc1ccccc1Oc1ccc(C(F)(F)F)cc1NC(=O)c1cc(Cl)ccc1O` [Compound No. 114]: the “Inhibitory Ratio of NF-κ B Activation(%) Drug Concentration 1 μg/mL” value worked out at 91.8% and the “Inhibitory Ratio of NF-κ B Activation(%) Drug Concentration 10 μg/mL” value is recorded as 98.2%.
The matching figures for `Cc1cc(Oc2ccc(C(F)(F)F)cc2NC(=O)c2cc(Cl)ccc2O)cc(C)c1Cl` [Compound No. 115]: 90.7% and 98.4%.
On to `O=C(Nc1cc(C(F)(F)F)ccc1N1CCCCC1)c1cc(Cl)ccc1O` [Compound No. 116], for which the “Inhibitory Ratio of NF-κ B Activation(%) Drug Concentration 1 μg/mL” value was 90.0% and the “Inhibitory Ratio of NF-κ B Activation(%) Drug Concentration 10 μg/mL” value amounted to 97.3%.
The matching figures for `Cc1ccc(Oc2ccc(C(F)(F)F)cc2NC(=O)c2cc(Cl)ccc2O)cc1` [Compound No. 117]: 92.8% and 92.6%.
As for `O=C(Nc1cc(C(F)(F)F)ccc1Oc1ccc(Cl)cc1)c1cc(Cl)ccc1O` [Compound No. 118], the “Inhibitory Ratio of NF-κ B Activation(%) Drug Concentration 1 μg/mL” value turned out to be 95.0% and the “Inhibitory Ratio of NF-κ B Activation(%) Drug Concentration 10 μg/mL” value came out at 99.5%.
Turning to `O=C(Nc1cc(C(F)(F)F)ccc1Cl)c1cc(Cl)cnc1O` [Compound No. 119], the “Inhibitory Ratio of NF-κ B Activation(%) Drug Concentration 1 μg/mL” value was found to be 85.4% and the “Inhibitory Ratio of NF-κ B Activation(%) Drug Concentration 10 μg/mL” value was determined as 86.9%.
Take `CC(=O)Oc1ccccc1C(=O)Nc1cc(Cl)cc(Cl)c1` [Compound No. 121]: the “Inhibitory Ratio of NF-κ B Activation(%) Drug Concentration 1 μg/mL” value came to 92.9% and the “Inhibitory Ratio of NF-κ B Activation(%) Drug Concentration 10 μg/mL” value is on record as 95.5%.
Consider `O=C(Nc1cc(Cl)ccc1Cl)c1cc(Cl)ccc1O` [Compound No. 122], for which the “Inhibitory Ratio of NF-κ B Activation(%) Drug Concentration 1 μg/mL” value came to 95.1% and the “Inhibitory Ratio of NF-κ B Activation(%) Drug Concentration 10 μg/mL” value is listed as 96.9%.
As to `O=C(Nc1cc(F)cc(F)c1)c1cc(Br)ccc1O` [Compound No. 123], the “Inhibitory Ratio of NF-κ B Activation(%) Drug Concentration 1 μg/mL” value was found to be 91.8% and the “Inhibitory Ratio of NF-κ B Activation(%) Drug Concentration 10 μg/mL” value is on record as 96.8%.
The matching figures for `O=C(Nc1cc(Cl)cc(Cl)c1)c1cc(F)ccc1O` [Compound No. 124]: 94.2% and 97.0%.
Taken in the same sequence, the figures for `O=C(Nc1cc(Cl)cc(Cl)c1)c1cc(Br)ccc1O` [Compound No. 126] were 77.1% and 92.8%.
Turning to `O=C(Nc1cc(Cl)cc(Cl)c1)c1cc(I)ccc1O` [Compound No. 127], the “Inhibitory Ratio of NF-κ B Activation(%) Drug Concentration 1 μg/mL” value is 85.4% and the “Inhibitory Ratio of NF-κ B Activation(%) Drug Concentration 10 μg/mL” value is listed as 97.1%.
The matching figures for `O=C(Nc1cc(Cl)cc(Cl)c1)c1cc(Br)cc(Br)c1O` [Compound No. 128]: 91.4% and 95.1%.
In the case of `O=C(Nc1cc(Cl)cc(Cl)c1)c1ccc(Cl)cc1O` [Compound No. 129], the “Inhibitory Ratio of NF-κ B Activation(%) Drug Concentration 10 μg/mL” value came out at 71.8%.
`O=C(Nc1cc(Cl)cc(Cl)c1)c1cc([N+](=O)[O-])ccc1O` [Compound No. 130]: the “Inhibitory Ratio of NF-κ B Activation(%) Drug Concentration 10 μg/mL” value came out at 70.6%.
Take `Cc1ccc(O)c(C(=O)Nc2cc(Cl)cc(Cl)c2)c1` [Compound No. 131]: the “Inhibitory Ratio of NF-κ B Activation(%) Drug Concentration 1 μg/mL” value was 49.1% and the “Inhibitory Ratio of NF-κ B Activation(%) Drug Concentration 10 μg/mL” value was determined as 88.7%.
As for `O=C(Nc1cc([N+](=O)[O-])cc([N+](=O)[O-])c1)c1cc(Br)ccc1O` [Compound No. 133], the “Inhibitory Ratio of NF-κ B Activation(%) Drug Concentration 1 μg/mL” value is given as 91.0% and the “Inhibitory Ratio of NF-κ B Activation(%) Drug Concentration 10 μg/mL” value was determined as 95.6%.

Values taken from patent US20060089395A1, “Nf-kb activation inhibitors” (priority 2002, published 2006).
